Laboratory results taken from patent publication US7470781B2, “Formulation of stabilized cationic transfection agent(s)/nucleic acid particles” (Aventis Pharma S.A., priority 1997, dated 2008).

Columns and labels:
[1] = Structure of complexes by low-angle X-ray diffraction and cryo-transmission electron microscopy; type: physicochemical
Description: The cryo-transmission electron microscopy (cryo-TEM) experiments are carried out with 7 μl of prepared samples containing 0.5 mg of DNA/ml, which are placed on a carbon-coated copper grid covered with a membrane with holes. The grids are then immersed in liquid ethane so as to convert the liquid water to vitrified water. Next, this grid is installed inside a specimen holder cooled with liquid nitrogen and introduced into the microscope (Philips CM12) for visualization.
The low-angle X-ray diffraction experiments are carried out in the synchrotron (LURE) in Orsay (France) on the D43 line. The samples are prepared at 0.5 mg DNA/ml and then centrifuged. The pellets are deposited in a cell in which the two windows consist of kapton. A germanium-containing monochromator (111 reflection) allows the selection of the wavelength of 0.138 nm.
In this study, we have determined, by low-angle X-ray diffraction and by transmission electron microscopy, the structure of the cationic lipid transfectant/DNA complexes.

mice = assay: Transfection in vivo after systemic injection, luciferase activity in organs; parameters: unit not given here; conditions: balbc mouse, 24 hours after tail vein injection
Description: The in vivo transfections are carried out by injecting, into the vein of the tail of 30-day-old mice, 200 μl of a solution containing 0.2 mg DNA/ml combined with a cationic lipid vector. 24 hours after the injection, the mice are humanely killed and then various organs are recovered (lung, liver, heart, kidney, spleen). These organs are then ground in a lysis buffer with the aid of an Ultraturax. The ground products obtained are then centrifuged, and then 10 μl of the supernatant is collected in order to assay the luciferase activity.
We compared the gene transfer efficiencies after systemic injections of precipitated RPR 120535/DNA complexes, and of these same complexes stabilized by the addition of Pluronic F68®. […] On the other hand, when the particles are colloidally stabilized by the addition of F68®, the luciferase activity is increased by a factor of 10 in the lungs, and expression is observed in other tissues (liver, heart).
Identical experiments to those described above were carried out using another lipid: BGTC. Similar results were obtained, namely an improvement in gene transfer in the lungs and a measurable expression in the liver, the heart and the kidneys. […] Indeed, given that nonviral lipid vectors are used, these complexes might have been expected to be destabilized by the presence of these endogenous lipids in a large quantity. The results of in vivo transfection of BGTC/DOPE/DNA complexes in the absence or in the presence of poloxalkol are assembled in Table IV below: […]

[2] = Size (hydrodynamic diameter) of cationic lipid/DNA complexes by photon correlation spectroscopy; type: physicochemical; conditions: component alone incubated with 1% (weight/volume) poloxalkol
Description: The measurement of the hydrodynamic diameter is carried out with a Coulter N4Plus, using plastic cells (four transparent faces) filled with 800 μl of the various solutions, the measurement being carried out at […] in unimodal mode.
The plasmid (10 μg/ml) is placed in a solution containing 150 mM NaCl and various concentrations of poloxalkol. The lipofectant RPR 120535 is then added in order to obtain a charge ratio (+/−) 2.5. The size of the complexes is then measured by photon correlation spectroscopy according to the procedure described in Methods.
The plasmid (10 μg/ml) is placed in a solution containing 150 mM NaCl at various concentrations of poloxalkol. RPR 120531 is then added in order to obtain a charge ratio (+/−) 2.5. The size of the complexes is measured by photon correlation spectroscopy (Coulter N4plus).
Table V below represents the diameter, in nm, of the RPR 120535/DNA complexes, at the charge ratio of 2.75 (+/−) and containing 0.25 mg of DNA/ml in 150 mM NaCl, stabilized with various nonionic surface-active agents.

| SMILES | periodicity of lamellar structure ([1]; in the absence and in the presence of poloxalkol) | size of complexes ([1]; presence of poloxalkol) | luciferase activity, Heart (mice; 0% F68) | luciferase activity, Kidneys (mice; 0% F68) | luciferase activity, Liver (mice; 0% F68) | luciferase activity, Lungs (mice; 0% F68) | luciferase activity, Heart (mice; 10% F68) | luciferase activity, Kidneys (mice; 10% F68) | luciferase activity, Liver (mice; 10% F68) | luciferase activity, Lungs (mice; 10% F68) | particles detectable by Quasi-Elastic Diffusion of light [2] |
| --- | --- | --- | --- | --- | --- | --- | --- | --- | --- | --- | --- |
| CC(C)CCC[C@@H](C)[C@H]1CC[C@H]2[C@@H]3CC=C4C[C@@H](OC(=O)NCCN(CCN=C(N)N)CCN=C(N)N)CC[C@]4(C)[C@H]3CC[C@]12C [BGTC] | 6.5 nm | small-sized complexes |  |  |  |  |  |  |  |  |  |
| CCCCCCCCCCCCCCCCCCN(CCCCCCCCCCCCCCCCCC)C(=O)CNC(=O)CNCCCNCCCCNCCCN [RPR 120535, H2N(CH2)3NH(CH2)4NH (CH2)3NHCH2COGlyN[(CH2)17CH3]2] |  |  | 0 | 0 | 0 | 2 ± 0.9 | 1 ± 0.4 | 0 | 2 ± 3 | 14 ± 0.9 | does not form particles |
